Results taken from the NIST ThermoML archive (doi:10.1021/acs.jced.9b00415).

Experiment: xn = mol fraction of the nth substance listed
Conditions: 102 kPa, Liquid; for viscosity: Concentric cylinders viscometry; for mass density: Vibrating tube method

CCCCn1cc[n+](C)c1.O=[N+]([O-])[O-] [1-butyl-3-methylimidazolium nitrate] + CCCCn1cc[n+](C)c1.[Cl-]
Conditions	mass density [kg/m3]	viscosity [mPa·s]
298.15 K, x1 = 0.8	1139.9	373.6
303.15 K, x1 = 0.8	1136.8	266.4
308.15 K, x1 = 0.8	1133.7	194.9
313.15 K, x1 = 0.5	1109.6	365.1
313.15 K, x1 = 0.6	1116.9	275.4
313.15 K, x1 = 0.8	1130.6	146
318.15 K, x1 = 0.2	–	721.3
318.15 K, x1 = 0.5	1106.6	262.7
318.15 K, x1 = 0.6	1113.9	201.5
318.15 K, x1 = 0.8	1127.6	111.7
323.15 K, x1 = 0.2	–	495.6
323.15 K, x1 = 0.4	1097.9	259.8
323.15 K, x1 = 0.5	1103.7	193.7
323.15 K, x1 = 0.6	1110.9	150.8
323.15 K, x1 = 0.8	1124.6	87.1
328.15 K, x1 = 0.2	1080.2	349.9
328.15 K, x1 = 0.4	1095	191.3
328.15 K, x1 = 0.5	1100.8	145.9
328.15 K, x1 = 0.6	1107.9	115.2
328.15 K, x1 = 0.8	1121.6	69.09
333.15 K, x1 = 0.1	1070.3	378.4
333.15 K, x1 = 0.2	1077.3	253.4
333.15 K, x1 = 0.4	1092	144
333.15 K, x1 = 0.5	1097.9	112
333.15 K, x1 = 0.6	1104.9	89.66
333.15 K, x1 = 0.8	1118.6	55.68
338.15 K, x1 = 0.1	1067.5	271.8
338.15 K, x1 = 0.2	1074.4	187.6
338.15 K, x1 = 0.4	1089.1	110.6
338.15 K, x1 = 0.5	1095	87.65
338.15 K, x1 = 0.6	1101.9	71.02
338.15 K, x1 = 0.8	1115.7	45.53
343.15 K, x1 = 0.1	1064.8	199.9
343.15 K, x1 = 0.2	1071.6	141.9
343.15 K, x1 = 0.4	1086.2	86.47
343.15 K, x1 = 0.5	1092.1	69.7
343.15 K, x1 = 0.6	1099	57.14
343.15 K, x1 = 0.8	1112.7	37.72
348.15 K, x1 = 0.1	1062.1	150.1
348.15 K, x1 = 0.2	1068.8	109.3
348.15 K, x1 = 0.4	1083.3	68.73
348.15 K, x1 = 0.5	1089.2	56.25
348.15 K, x1 = 0.6	1096.1	46.63
348.15 K, x1 = 0.8	1109.7	31.62
353.15 K, x1 = 0.1	1059.3	115
353.15 K, x1 = 0.2	1065.9	85.68
353.15 K, x1 = 0.4	1080.5	55.46
353.15 K, x1 = 0.5	1086.4	46.03
353.15 K, x1 = 0.6	1093.2	38.55
353.15 K, x1 = 0.8	1106.8	26.81
358.15 K, x1 = 0.1	1056.6	89.62
358.15 K, x1 = 0.2	1063.1	68.25
358.15 K, x1 = 0.4	1077.6	45.37
358.15 K, x1 = 0.5	1083.5	38.16
358.15 K, x1 = 0.6	1090.3	32.27
358.15 K, x1 = 0.8	1103.8	22.96
363.15 K, x1 = 0.1	1053.8	71.03
363.15 K, x1 = 0.2	1060.4	55.17
363.15 K, x1 = 0.4	1074.8	37.6
363.15 K, x1 = 0.5	1080.6	32.02
363.15 K, x1 = 0.6	1087.4	27.32
363.15 K, x1 = 0.8	1100.9	19.87
